Experimental data from paper PMC11053447, “Human ABC and SLC Transporters: The Culprit Responsible for Unspecific PSMA-617 Uptake?” (Pharmaceuticals, 2024).
Values belong to the molecule of their own block, whether it stands above or below them.

Tests used:
[1] = parameters: method as in PMID 37191680; details: PSMA-null mice; cited from earlier work
MDR1 = MDR1 (Homo sapiens, UniProt P08183)
Description: The incubations were carried out in the presence of 4 mM ATP or AMP to distinguish between transporter-mediated uptake and passive diffusion into the vesicles. […] Afterwards, the reaction mixtures were pre-incubated for 15 min at 37 °C for MRP1 or at 32 °C for BCRP, MDR1 and MRP4, respectively. The transporter assay was initiated through the addition of 25 μL of pre-warmed 12 mM MgATP (or 12 mM AMP in assay buffer as a background control). The reactions were quenched through the addition of 200 μL of ice-cold washing buffer and immediate filtration via glass fiber filters mounted onto a 96-well plate (filter plate). The filters were washed (5 × 200 μL of ice-cold washing buffer) and dried, and the amount of probe substrate inside the filtered vesicles was determined using LSC. The experiments were conducted in triplicate.
Calculation of ATP-dependent transport and inhibition for vesicular transport inhibition
For all wells the amount of the translocated probe substrate was determined in counts per minute (cpm).
ATP-dependent transport (pmol/mg protein/min) is calculated for each concentration using the following
𝐴𝑐𝑐𝐴𝑇𝑃 ∙ 𝑉 ∙ 𝐶𝐶 𝐴𝑐𝑐𝐴𝑀𝑃 ∙𝑉 ∙𝐶𝐶
𝐴𝑇𝑃 − 𝑑𝑒𝑝𝑒𝑛𝑑𝑒𝑛𝑡 𝑎𝑐𝑐𝑢𝑚𝑢𝑙𝑎𝑡𝑖𝑜𝑛 = ( 𝑇𝐶𝑃𝑀 𝑠𝑢𝑏) − ( 𝑇𝐶𝑃𝑀 𝑠𝑢𝑏)
• AccATP: probe substrate accumulation with ATP (cpm)
• AccAMP: probe substrate accumulation with AMP (cpm)
• Tcpm: cpm in dosing solution V: volume per well (µL)
• CCsub: probe substrate concentration (µM)
• Prot: total protein per well (mg)
• t: incubation time (min)
Relative ATP-dependent transport (%) values were calculated using the following equation:
𝑅𝑒𝑙𝑎𝑡𝑖𝑣𝑒 𝐴𝑇𝑃 − 𝑑𝑒𝑝𝑒𝑛𝑑𝑒𝑛𝑡 𝑡𝑟𝑎𝑛𝑠𝑝𝑜𝑟𝑡 (%) = 𝐴 − 𝐵 ∙ 100
• A: amount of translocated substrate in the presence of test substance (TS) and ATP
• B: amount of translocated substrate in the presence of test substance (TS) and AMP
• C: amount of translocated substrate in the presence of solvent and ATP
• D: amount of translocated substrate in the presence of solvent and AMP
Relative inhibition (%) is calculated by setting probe substrate transport in the absence of test substance as
𝑅𝑒𝑙𝑎𝑡𝑖𝑣𝑒 𝑖𝑛ℎ𝑖𝑏𝑖𝑡𝑖𝑜𝑛 (%) = 𝐴𝑐𝑐𝑆𝑝𝑒𝑐𝑖𝑓𝑖𝑐,𝑥 ∙100
• Accspecific,x: transporter specific accumulation for a given sample (pmol/mg/min)
• Accspecific,vehicle: transporter specific accumulation for a solvent control (pmol/mg/min)
Data are expressed as mean (n=3)
N-methyl quinidine (NMQ) measured in the vesicular transport inhibition assay.
Nominal ATP Relative ATP Relative
Compound concentration [µM] dependent transport dependent transport inhibition [%]
[pmol/mg/min] [% of control]
Data are expressed as mean (n=3) ± SD.

MRP4 = target: T1, MRP4 (Homo sapiens, UniProt O15439); experiment: Vesicular transport inhibition assay (ABC), MRP4-mediated DHEAS transport, HEK293 membrane vesicles; type: in vitro ADME; details: positive control inhibitor 150.0 µM, DHEAS probe
T1 construct: host or cells: HEK293 (membrane vesicles)
T1 sequence (O15439 1-1325): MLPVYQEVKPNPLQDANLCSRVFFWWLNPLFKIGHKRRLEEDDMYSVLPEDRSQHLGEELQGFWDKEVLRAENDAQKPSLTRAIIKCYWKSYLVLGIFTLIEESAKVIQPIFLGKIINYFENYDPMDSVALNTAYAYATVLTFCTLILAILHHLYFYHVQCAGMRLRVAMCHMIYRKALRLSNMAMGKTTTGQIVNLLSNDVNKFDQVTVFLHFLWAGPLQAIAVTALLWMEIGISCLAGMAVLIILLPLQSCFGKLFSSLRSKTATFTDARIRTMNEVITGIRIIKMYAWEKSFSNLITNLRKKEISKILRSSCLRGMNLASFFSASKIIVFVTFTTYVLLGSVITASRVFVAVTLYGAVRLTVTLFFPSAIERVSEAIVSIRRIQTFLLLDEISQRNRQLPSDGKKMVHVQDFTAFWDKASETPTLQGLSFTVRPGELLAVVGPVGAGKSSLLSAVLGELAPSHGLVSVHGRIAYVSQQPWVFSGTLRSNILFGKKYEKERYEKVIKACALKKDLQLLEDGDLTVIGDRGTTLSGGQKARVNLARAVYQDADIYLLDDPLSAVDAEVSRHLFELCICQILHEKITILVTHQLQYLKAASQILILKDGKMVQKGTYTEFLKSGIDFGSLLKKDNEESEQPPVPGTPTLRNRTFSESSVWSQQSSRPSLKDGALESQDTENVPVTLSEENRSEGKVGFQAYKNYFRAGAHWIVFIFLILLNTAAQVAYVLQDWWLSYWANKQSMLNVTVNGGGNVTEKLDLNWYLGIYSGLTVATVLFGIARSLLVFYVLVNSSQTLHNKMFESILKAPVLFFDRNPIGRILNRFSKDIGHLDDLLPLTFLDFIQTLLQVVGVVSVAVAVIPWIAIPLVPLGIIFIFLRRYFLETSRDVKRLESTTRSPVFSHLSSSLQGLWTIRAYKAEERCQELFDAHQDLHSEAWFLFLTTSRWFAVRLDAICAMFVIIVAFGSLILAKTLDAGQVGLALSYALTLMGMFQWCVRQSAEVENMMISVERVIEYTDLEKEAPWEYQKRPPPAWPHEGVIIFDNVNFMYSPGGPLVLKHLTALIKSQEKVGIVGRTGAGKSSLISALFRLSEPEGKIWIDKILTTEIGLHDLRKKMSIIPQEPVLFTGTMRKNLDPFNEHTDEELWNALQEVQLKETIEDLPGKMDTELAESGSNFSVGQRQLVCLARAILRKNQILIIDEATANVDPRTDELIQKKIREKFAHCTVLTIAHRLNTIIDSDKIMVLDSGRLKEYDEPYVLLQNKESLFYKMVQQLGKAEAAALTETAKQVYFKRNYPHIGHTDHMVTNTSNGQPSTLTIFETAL

[2] = cited from earlier work
[3] = parameters: method as in PMID 29651569; details: within the first 24 h post injection; cited from earlier work

Sequence of MDR1 (P08183 whole entry): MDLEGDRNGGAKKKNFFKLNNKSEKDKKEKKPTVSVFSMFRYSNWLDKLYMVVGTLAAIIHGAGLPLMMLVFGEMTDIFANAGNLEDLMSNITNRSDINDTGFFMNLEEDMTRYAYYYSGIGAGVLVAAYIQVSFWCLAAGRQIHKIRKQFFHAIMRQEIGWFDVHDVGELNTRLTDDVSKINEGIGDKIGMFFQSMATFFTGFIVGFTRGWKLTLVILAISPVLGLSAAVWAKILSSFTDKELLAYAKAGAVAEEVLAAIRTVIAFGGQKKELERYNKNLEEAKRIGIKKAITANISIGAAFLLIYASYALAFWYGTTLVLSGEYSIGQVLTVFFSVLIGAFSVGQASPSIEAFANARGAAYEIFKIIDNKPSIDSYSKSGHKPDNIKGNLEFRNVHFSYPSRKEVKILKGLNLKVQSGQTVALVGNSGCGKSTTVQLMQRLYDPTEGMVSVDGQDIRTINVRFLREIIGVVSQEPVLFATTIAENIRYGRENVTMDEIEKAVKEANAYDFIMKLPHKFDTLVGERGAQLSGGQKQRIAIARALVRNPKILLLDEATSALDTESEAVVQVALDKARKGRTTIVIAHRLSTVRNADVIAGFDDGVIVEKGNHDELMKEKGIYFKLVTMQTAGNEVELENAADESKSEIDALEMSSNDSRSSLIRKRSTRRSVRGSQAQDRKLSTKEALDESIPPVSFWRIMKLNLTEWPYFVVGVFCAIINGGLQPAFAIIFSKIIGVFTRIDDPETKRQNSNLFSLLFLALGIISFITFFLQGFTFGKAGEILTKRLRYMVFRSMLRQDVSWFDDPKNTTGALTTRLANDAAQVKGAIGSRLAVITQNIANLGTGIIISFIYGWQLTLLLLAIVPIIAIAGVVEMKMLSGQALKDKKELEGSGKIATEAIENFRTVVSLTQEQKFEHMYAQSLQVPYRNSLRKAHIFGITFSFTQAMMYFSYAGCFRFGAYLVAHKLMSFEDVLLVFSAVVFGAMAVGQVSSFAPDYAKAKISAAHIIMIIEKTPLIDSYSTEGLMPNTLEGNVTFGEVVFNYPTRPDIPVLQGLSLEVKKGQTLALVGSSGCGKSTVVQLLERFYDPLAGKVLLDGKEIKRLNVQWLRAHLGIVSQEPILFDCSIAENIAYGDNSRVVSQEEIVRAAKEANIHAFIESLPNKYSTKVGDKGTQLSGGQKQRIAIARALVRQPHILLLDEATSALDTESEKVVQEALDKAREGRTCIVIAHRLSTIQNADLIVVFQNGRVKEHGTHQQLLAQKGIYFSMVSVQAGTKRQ

Compound: O=C([O-])CN(CCN(CC(=O)[O-])Cc1cc(CCC(=O)NCCCCCC(=O)NCCCC[C@H](NC(=O)N[C@@H](CCC(=O)O)C(=O)O)C(=O)O)ccc1[O-])Cc1cc(CCC(=O)O)ccc1[O-].[68Ga+3].[OH3+] [[^68Ga]Ga-PSMA-11]
Uptake by healthy kidneys and SGs [1]: greatly reduced uptake

inhibition at 1 min, 1 µM (MDR1; human, probe N-methyl quinidine (NMQ), 1.0 µM): 96% | Relative ATP dependent transport (MDR1; positive control inhibitor 1.00 µM, NMQ probe, mean (n=3) ± SD): 4.28 ± 0.62 % of control
Compound: C/C=C/C[C@@H](C)C(=O)[C@H]1C(=O)N[C@@H](C(C)C)C(=O)N(C)CC(=O)N(C)[C@@H](CC(C)C)C(=O)N[C@@H](C(C)C)C(=O)N(C)[C@@H](CC(C)C)C(=O)N[C@@H](C)C(=O)N[C@H](C)C(=O)N(C)[C@@H](CC(C)C)C(=O)N(C)[C@@H](CC(C)C)C(=O)N(C)[C@@H](C(C)C)C(=O)N1C [Valspodar, reference compound]

inhibition at 1.5 min, 150 µM (MRP4; human, probe dehydroepiandrosterone sulfate (DHEAS), 0.5 µM, read-out: Relative inhibition): 98% | ATP dependent transport (MRP4; mean (n=3) ± SD): 256.00 ± 59.15 pmol/mg/min | Relative ATP dependent transport (MRP4; mean (n=3) ± SD): 2.06 ± 0.48 % of control
Compound: CN(C)C(=O)CCSC(SCCC(=O)O)c1cccc(/C=C/c2ccc3ccc(Cl)cc3n2)c1 (stereo not drawn) [MK-571, reference compound]

Compound: O=C([O-])CN1CCN(CC(=O)[O-])CCN(CC(=O)NCC2CCC(C(=O)NC(Cc3ccc4ccccc4c3)C(=O)NCCCCC(NC(=O)NC(CCC(=O)O)C(=O)O)C(=O)O)CC2)CCN(CC(=O)[O-])CC1.[177Lu+3] (stereo not drawn) [[^177Lu]Lu-PSMA-617]
Accumulation in the kidneys ([2]; kidneys): 0.5–0.6 Gy/GBq injected dose | Accumulation in the salivary glands ([2]; salivary glands (SGs)): up to 1 Gy/GBq injected dose | Excreted via the renal route in urine [3]: up to 70%
